In PubChem BioAssay AID248 (DTP/NCI, 2004):
Several values for one entry are separate records, joined by “and”; a condition that tells them apart may be missing. Equal values may be shown once. Toxic doses and inconclusive results are not listed. No stated cut-off is given here; in the data, active means T/C of 150% or more; inactive means T/C below 125%.

System: L1210 leukemia ip in BDF1 mice, survival T/C
Experiment: NCI In Vivo Anticancer Drug Screen. Data for tumor model L1210 Leukemia (intraperitoneal) in B6D2F1 (BDF1) mice
Settings: endpoint: mean survival time, higher = longer survival
Summary of the method: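 Transplanted-tumor mice were given test agent; controls received vehicle only. Survival readings from the two groups were divided (treated over control).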

[1] = dose: 100.0 mg/kg/injection, schedule: Q01DX009 (ip), vehicle: Klucel (hydroxypropylcellulose) (HPC)
[2] = dose: 100.0 mg/kg/injection, schedule: Q04DX003 (ip), vehicle: Klucel (hydroxypropylcellulose) (HPC)
[3] = dose: 200.0 mg/kg/injection, schedule: Q01DX009 (ip), vehicle: Klucel (hydroxypropylcellulose) (HPC)
[4] = dose: 200.0 mg/kg/injection, schedule: Q04DX003 (ip), vehicle: Klucel (hydroxypropylcellulose) (HPC)
[5] = dose: 400.0 mg/kg/injection, schedule: Q01DX009 (ip), vehicle: Klucel (hydroxypropylcellulose) (HPC)
[6] = dose: 400.0 mg/kg/injection, schedule: Q04DX003 (ip), vehicle: Klucel (hydroxypropylcellulose) (HPC)
[7] = dose: 100.0 mg/kg/injection, schedule: Q01DX009 (ip), vehicle: saline
[8] = dose: 200.0 mg/kg/injection, schedule: Q01DX009 (ip), vehicle: saline
[9] = dose: 100.0 mg/kg/injection, schedule: Q04DX002 (ip), vehicle: Klucel (hydroxypropylcellulose) (HPC)
[10] = dose: 100.0 mg/kg/injection, schedule: Q01DX009 (ip), vehicle: saline with Tween-80
[11] = dose: 200.0 mg/kg/injection, schedule: Q01DX009 (ip), vehicle: saline with Tween-80
[12] = dose: 400.0 mg/kg/injection, schedule: Q01DX009 (ip), vehicle: saline with Tween-80
[13] = dose: 100.0 mg/kg/injection, schedule: Q04DX002 (ip), vehicle: saline with Tween-80
[14] = dose: 200.0 mg/kg/injection, schedule: Q04DX002 (ip), vehicle: saline with Tween-80
[15] = dose: 400.0 mg/kg/injection, schedule: Q04DX002 (ip), vehicle: saline with Tween-80

Measured: T/C

CCCCCCCCC(=O)N(C(C)C)C(C)C
inactive: dose: 100.0 mg/kg/injection, schedule: Q01DX009 (ip), vehicle: carboxymethylcellulose (CMC) 93 % of control and 102 % of control | dose: 100.0 mg/kg/injection, schedule: Q04DX002 (ip), vehicle: carboxymethylcellulose (CMC) 98 % of control and 101 % of control | dose: 200.0 mg/kg/injection, schedule: Q01DX009 (ip), vehicle: carboxymethylcellulose (CMC) 93 % of control and 96 % of control | dose: 200.0 mg/kg/injection, schedule: Q04DX002 (ip), vehicle: carboxymethylcellulose (CMC) 95 % of control and 92 % of control | dose: 400.0 mg/kg/injection, schedule: Q01DX009 (ip), vehicle: carboxymethylcellulose (CMC) 92 % of control | dose: 400.0 mg/kg/injection, schedule: Q04DX002 (ip), vehicle: carboxymethylcellulose (CMC) 87 % of control and 92 % of control

COc1cc(N=CN(C)C)cc(OC)c1OC
inactive: [1] 101 % of control | [2] 97 % of control | [3] 103 % of control | [4] 97 % of control | [5] 103 % of control | [6] 93 % of control

O=C1c2ccccc2C(=O)N1/N=C/c1cc(Cl)cc(Cl)c1O
inactive: dose: 75.0 mg/kg/injection, schedule: Q01DX001 (ip), vehicle: saline 91 % of control | dose: 150.0 mg/kg/injection, schedule: Q01DX001 (ip), vehicle: saline 93 % of control | dose: 300.0 mg/kg/injection, schedule: Q01DX001 (ip), vehicle: saline 93 % of control

C#CC(C)(C)CC
inactive: [7] 111 % of control | [8] 97 % of control | dose: 400.0 mg/kg/injection, schedule: Q01DX009 (ip), vehicle: saline 122 % of control

O=C(c1ccccn1)C12CC3CC(CC(C3)C1)C2
inactive: dose: 100.0 mg/kg/injection, schedule: Q04DX003 (ip), vehicle: saline with Tween-80 97 % of control | dose: 200.0 mg/kg/injection, schedule: Q04DX003 (ip), vehicle: saline with Tween-80 98 % of control | dose: 400.0 mg/kg/injection, schedule: Q04DX003 (ip), vehicle: saline with Tween-80 101 % of control

CCCCCCCCCCCCCCCCCCNC(=O)N(C)C1CCCCC1
inactive: [1] 88 % of control | [3] 89 % of control | [5] 101 % of control

CN=C(N)N/N=C/C(C)=N/NC(N)=NC
inactive: dose: 15.0 mg/kg/injection, schedule: Q01DX Z (ip), vehicle: saline 96 % of control | dose: 30.0 mg/kg/injection, schedule: Q01DX Z (ip), vehicle: saline 106 % of control | dose: 60.0 mg/kg/injection, schedule: Q01DX Z (ip), vehicle: saline 104 % of control | dose: 120.0 mg/kg/injection, schedule: Q01DX Z (ip), vehicle: saline 95 % of control

Cc1ccc(Cl)c(C2c3ccccc3Cc3ccc4ccccc4c32)c1 (stereo not drawn)
inactive: dose: 50.0 mg/kg/injection, schedule: Q01DX001 (ip), vehicle: carboxymethylcellulose (CMC) 101 % of control | dose: 100.0 mg/kg/injection, schedule: Q01DX001 (ip), vehicle: carboxymethylcellulose (CMC) 101 % of control | dose: 200.0 mg/kg/injection, schedule: Q01DX001 (ip), vehicle: carboxymethylcellulose (CMC) 95 % of control | dose: 400.0 mg/kg/injection, schedule: Q01DX001 (ip), vehicle: carboxymethylcellulose (CMC) 98 % of control

N/C(=N\[N+](=O)[O-])Nc1nc2ccccc2s1
inactive: [9] 113 % of control

CCCCCCC(=O)N1CCOCC1
inactive: dose: 25.0 mg/kg/injection, schedule: Q04DX002 (ip), vehicle: saline 108 % of control | dose: 50.0 mg/kg/injection, schedule: Q04DX002 (ip), vehicle: saline 101 % of control | dose: 100.0 mg/kg/injection, schedule: Q04DX002 (ip), vehicle: saline 93 % of control and 92 % of control

ClCC1=NCCN1
inactive: dose: 12.5 mg/kg/injection, schedule: Q04DX002 (ip), vehicle: Klucel (hydroxypropylcellulose) (HPC) 97 % of control | dose: 25.0 mg/kg/injection, schedule: Q04DX002 (ip), vehicle: Klucel (hydroxypropylcellulose) (HPC) 97 % of control | dose: 50.0 mg/kg/injection, schedule: Q04DX002 (ip), vehicle: Klucel (hydroxypropylcellulose) (HPC) 97 % of control

Cc1cc(C)[s+]s1
inactive: dose: 12.5 mg/kg/injection, schedule: Q01DX009 (ip), vehicle: saline 94 % of control | dose: 25.0 mg/kg/injection, schedule: Q01DX009 (ip), vehicle: saline 100 % of control | dose: 50.0 mg/kg/injection, schedule: Q01DX009 (ip), vehicle: saline 103 % of control and 91 % of control | dose: 100.0 mg/kg/injection, schedule: Q04DX003 (ip), vehicle: saline 106 % of control | dose: 200.0 mg/kg/injection, schedule: Q04DX003 (ip), vehicle: saline 97 % of control

COS(=O)(=O)CCC[n+]1ccccc1
inactive: dose: 50.0 mg/kg/injection, schedule: Q01DX001 (ip), vehicle: saline 98 % of control | dose: 100.0 mg/kg/injection, schedule: Q01DX001 (ip), vehicle: saline 96 % of control | dose: 200.0 mg/kg/injection, schedule: Q01DX001 (ip), vehicle: saline 96 % of control

CCC(C(=O)O)N(C)Cc1ccccc1 (stereo not drawn)
inactive: [10] 92 % of control | [11] 89 % of control | [12] 89 % of control

CC1=C(C)CC2C(=O)c3c(O)ccc(O)c3C(=O)C2C1 (stereo not drawn)
inactive: [13] 91 % of control | [14] 95 % of control | [15] 91 % of control

O=C1CCCN1C(=O)C1CC1
inactive: dose: 100.0 mg/kg/injection, schedule: Q01DX001 (ip), vehicle: saline sonified 96 % of control | [10] 91 % of control | dose: 200.0 mg/kg/injection, schedule: Q01DX001 (ip), vehicle: saline sonified 109 % of control | [11] 87 % of control | dose: 400.0 mg/kg/injection, schedule: Q01DX001 (ip), vehicle: saline sonified 106 % of control | [12] 92 % of control

Cc1ccc(S(=O)(=O)N(C)c2cc(Cl)c(I)cc2Cl)cc1
inactive: dose: 100.0 mg/kg/injection, schedule: Q01DX001 (ip), vehicle: Klucel (hydroxypropylcellulose) (HPC) 97 % of control | [2] 93 % of control and 94 % of control | dose: 200.0 mg/kg/injection, schedule: Q01DX001 (ip), vehicle: Klucel (hydroxypropylcellulose) (HPC) 97 % of control | [4] 98 % of control | dose: 400.0 mg/kg/injection, schedule: Q01DX001 (ip), vehicle: Klucel (hydroxypropylcellulose) (HPC) 94 % of control | [6] 97 % of control and 98 % of control

O=C(Nc1ccc(Cl)cc1Cl)Nc1ccc(Cl)cc1Cl
inactive: [9] 91 % of control | dose: 200.0 mg/kg/injection, schedule: Q04DX002 (ip), vehicle: Klucel (hydroxypropylcellulose) (HPC) 94 % of control

C#CC(C)(C)OCC(O)CCl (stereo not drawn)
inactive: [7] 96 % of control | dose: 100.0 mg/kg/injection, schedule: Q04DX003 (ip), vehicle: saline sonified 114 % of control | [8] 89 % of control | dose: 200.0 mg/kg/injection, schedule: Q04DX003 (ip), vehicle: saline sonified 109 % of control | dose: 400.0 mg/kg/injection, schedule: Q04DX003 (ip), vehicle: saline sonified 109 % of control

O=C1OC(c2ccco2)=N/C1=C\c1ccc(Cl)c(Cl)c1
inactive: [13] 108 % of control | [14] 105 % of control | [15] 108 % of control

CN(C)CCOC(=O)N1c2ccccc2C(C)(C)c2ccccc21
inactive: dose: 5.8 mg/kg/injection, schedule: Q01DX001 (ip), vehicle: water 93 % of control | dose: 11.5 mg/kg/injection, schedule: Q01DX001 (ip), vehicle: water 98 % of control | dose: 23.0 mg/kg/injection, schedule: Q01DX001 (ip), vehicle: water 91 % of control | dose: 44.4 mg/kg/injection, schedule: Q01DX001 (ip), vehicle: water 95 % of control | dose: 50.0 mg/kg/injection, schedule: Q01DX001 (ip), vehicle: water 100 % of control | dose: 66.7 mg/kg/injection, schedule: Q01DX001 (ip), vehicle: water 97 % of control | dose: 150.0 mg/kg/injection, schedule: Q01DX001 (ip), vehicle: water 95 % of control

CCOC(=O)c1cnc(SC)nc1Nc1ccc(Br)cc1
inactive: dose: 50.0 mg/kg/injection, schedule: Q01DX009 (ip), vehicle: Klucel (hydroxypropylcellulose) (HPC) 93 % of control | [1] 92 % of control | [2] 124 % of control | [3] 88 % of control | [4] 124 % of control | [6] 87 % of control
